In brackets after ≈: the same amount, converted by molar mass. Read-outs that look alike come from different tables or passages of the source.

What is called EC50 is the concentration needed to bring the measured effect to its halfway point. The solubility (kinetic) is the concentration staying in solution when a stock, usually in DMSO, is diluted into the medium. A word on the Kd: it is the concentration at which binding is half-saturated.

Series [1] is described as follows: Parallel artificial membrane permeation assay (PAMPA). Conditions: for Papp: PAMPA, read-out: PAMPA passive permeability. It counts as in vitro ADME.
Series [2] can be described thus: pION µSOL kinetic aqueous solubility. In kind it is physicochemical. Conditions: pION µSOL assay, pH 7.4; for solubility kinetic: aqueous medium.
The subject of series [3] is endogenous IQGAP1/Cdc42 interaction. In words: Immunoprecipitation of endogenous IQGAP1 and co-precipitated Cdc42 in HEK293 cell lysates. The following applies: 0.2-50 µM. It counts as binding. The procedure: Each compound was added to lysates from HEK293 cells at a final concentration of 50 µM and endogenous IQGAP1 was immunoprecipitated. DMSO alone was used as the negative control (100% binding).
HEK293 cells were plated in 10-cm dishes to reach 80% confluence. The following day, the cells were washed with ice-cold phosphate-buffered saline (PBS) and lysed with 500 µl of Buffer A (50 mM Tris–HCl, pH 7.4, 150 mM NaCl, and 1% Triton X-100) supplemented with complete protease and phosphatase inhibitors (Roche, Mannheim, Germany). Lysates were subjected to two rounds of sonication for 10 s each, and insoluble material was precipitated by centrifugation at 13,000 xg for 10 min at 4 °C. Supernatants were precleared with protein A-Sepharose beads for 1 h. DMSO (vehicle) or different concentrations of the compounds (0.2, 0.6, 1, 5, 16 or 50 µM) were added to equal amounts of protein lysates for 30 min. Protein A-Sepharose beads and anti-IQGAP1 polyclonal antibodies were then added for 2 h at 4 °C. Anti-rabbit IgG antibodies were used as the immunoprecipitation control. Samples were washed five times with Buffer A, resolved by SDS-PAGE and transferred to polyvinylidene fluoride (PVDF) membranes (Millipore Corp). Membranes were probed with anti-IQGAP1 and anti-Cdc42 antibodies. After secondary antibody detection, Western blots were imaged using a LI-COR Odyssey infrared imaging system (LI-COR, USA). Western blot quantification and analysis was conducted using Image Studio™ Lite (LI-COR Biosciences).

Series [4] can be described thus: Metabolic half-life in rat liver microsome lysates. The following applies: minimum detectable half-life of 1 min; for half-life: read-out: T1/2 metabolic half-life. It counts as in vitro ADME. (In general: Liver microsomes are vesicles of endoplasmic reticulum, rich in cytochrome P450 enzymes.)
For another series, the system named is MDA-MB-231 cells. In words: IncuCyte proliferation assay, MDA-MB-231. In kind it is cell-based, human. The following applies: 72 h; for effect on proliferation: up to 50 µM. How it is done: (§1) MDA-MB-231 and MCF7 cells were grown to confluence, detached using trypsin–EDTA cell dissociation buffer (Gibco 12604013) and counted. Cells were plated into 384-well, clear-bottom, black, tissue culture treated plates (Corning 3683) using an automatic dispenser (Thermo Multidrop Combi SMART) at densities of 2000 cells/10 µL/well for MDA-MB-231 cells and 4000 cells/10 µL/well for MCF7 cells in DMEM supplemented with 5% FBS. After 4 h incubation at 37 °C with 5% CO2, the growth medium was replaced with 10 µL medium containing compounds at 16-point 1:2 serial dilutions with the final highest concentration of 50 µM for each compound. All samples containing compounds were plated in triplicate. Cells in the first column of the plate were treated with 0.5% DMSO as control. The plates were placed into an Incucyte SX5 Live-cell imaging system (Sartorius) and phase images were taken at 6-h intervals for 72 h with 10X objective lens. The growth medium containing compounds or DMSO was replenished after 24 h. The images were analyzed, and the growth curves generated by the Incucyte software 2020A using the basic analyzer mode.

A further series addresses T1, His-Cdc42 (Homo sapiens, UniProt P60953, Q61L).
T1 construct: made in house; host or cells: E. coli
Description: Microscale thermophoresis (MST). It counts as binding. The following applies: for effect on thermophoretic motion of Cdc42 / Kd: MST; for effect on thermophoretic motion of Cdc42: 500 µM to 244 nM; for Kd: 100 nM labeled His-Cdc42, n = 3. The procedure:
Two-fold serial dilutions of compounds were first prepared in DMSO, then further diluted in PBS containing 0.05% Tween-20. […] Samples were loaded into Monolith™ standard capillaries and measured using Monolith NT.115 (Nanotemper Technologies) with 50% excitation power and 50% MST power, with laser on and off times of 30 s and 5 s, respectively. The Kd values were calculated by evaluating the thermophoresis and T-Jump signals using MO.Affinity Analysis software (Nanotemper Technologies). All experiments were conducted in three biological replicates.
On the technique in general: Microscale thermophoresis detects binding through changes in fluorescence in a small temperature gradient.

The target of another series is T2, GST-Cdc42-Q61L-His (Homo sapiens, UniProt P60953, Q61L).
T2 construct: His (hexa-histidine in the Results); made in house; host or cells: Escherichia coli BL-21
T2 sequence (P60953 2-191 isoform P60953-1 Q61L): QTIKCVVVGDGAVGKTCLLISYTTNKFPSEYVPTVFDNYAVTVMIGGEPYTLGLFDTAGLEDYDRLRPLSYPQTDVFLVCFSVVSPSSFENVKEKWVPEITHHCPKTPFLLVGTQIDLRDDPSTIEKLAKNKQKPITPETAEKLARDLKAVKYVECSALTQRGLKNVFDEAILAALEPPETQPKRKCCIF
Description: HTRF counter-screen with double-tagged Cdc42. Conditions: 100 nM GST-Cdc42-Q61L-His. How it is done: Two different HTRF counter-screens were used to identify false positive hits. The two interacting proteins GST-IQGAP1-C and His-Cdc42-Q61L were replaced with His-tagged GST or Cdc42-Q61L containing GST at the N-terminus and His at the C-terminus (GST-Cdc42-Q61L-His).
First, GST-Cdc42-Q61L-His was titrated in parallel with the pre-mixed His-Cdc42-Q61L and GST-IQGAP1-C to comparatively match the signal level to the signal of the primary HTRF assay. We chose 100 nM GST-Cdc42-Q61L-His protein as the final concentration for the counter-screen. The assay protocol is outlined in Supplementary Table S2 online. Briefly, 4 μL/well of […] diluted in binding buffer was dispensed to the plates, followed by pinning 23 nL/well of selected hit compounds from the primary screening and addition of 2 μL/well premixed HTRF antibodies. After 3 h, 1 μL/well of 2.8 M potassium fluoride was added to the assay and the fluorescence signal was read on the Envision instrument. For controls, we used pre-mixed proteins GST-IQGAP1-C and His-Cdc42-Q61L (primary assay’s regular conditions) as IC100, and […] at 1.5 nM final concentration as IC0.
Supplementary Table S2: Counter-screening HTRF protocol.
Step Parameter Value Description
1a Protein 4 µL 100 nM His-GST (final concentration), diluted in
1b Controls 4 µL Column 2: GST-IQGAP1-C protein only [1.5nM] final
Column 3: pre-mixed proteins (regular assay
2 Compounds 23 nL Selected compounds were pin-transferred from DMSO
HTRF α-His-XL (5 ng/µL, 3X working concentration) +
3 antibodies 2 µL α-GST-K (0.7 ng/µL 3X working concentration),
pre-mix mixed in binding buffer
4 Time 3 Incubation (ambient temperature)
5 Reagent 1 µL 2.8 M KF (7x)
6 Detector HTRF Envision plate reader (excitation: 340 nm, emission: […]
In general terms: TR-FRET usually uses a lanthanide donor and a delayed reading to cut background.

A further series concerns MCF7 cells. In words: IncuCyte proliferation assay, MCF7. Conditions: 72 h; for effect on proliferation: up to 50 µM. It counts as cell-based, human. How it is done: as §1

T1 sequence (P60953 1-184 isoform P60953-1 Q61L): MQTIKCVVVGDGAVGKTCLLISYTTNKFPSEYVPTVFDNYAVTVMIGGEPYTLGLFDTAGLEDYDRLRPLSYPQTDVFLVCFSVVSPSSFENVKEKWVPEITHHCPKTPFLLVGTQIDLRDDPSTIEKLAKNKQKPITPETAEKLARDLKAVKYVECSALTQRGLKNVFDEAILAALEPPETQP

Regarding `CCN(CC)CCn1c2ccccc2c2nc3ccc([N+](=O)[O-])cc3cc21` [MLS000332963], the PAMPA passive permeability in series [1] worked out at 675 ×10⁻⁶ cm/s. Further, in series [2], the “Solubility (kinetic aqueous)” value was less than 1 µg/mL. Further, the “effect on Cdc42 binding to IQGAP1 in immunoprecipitation” value (from here on “effect on Cdc42 binding to IQGAP1”) in series [3] is on record as “reduced the binding substantially”. Moreover, the T1/2 metabolic half-life in series [4] is 11.47 min. Besides, the EC50 in the series on MDA-MB-231 cells (confluency) came to 3.01 µM; in the series with MCF7 cells (confluency), 6.54 µM. For the same molecule, the “effect on proliferation” value in the series with MDA-MB-231 cells and in the series with MCF7 cells was “dose-dependent inhibitory effect” in each case. Further, the “concentration above which precipitates formed” value at His-Cdc42 (MST samples, PBS containing 0.05% Tween-20) is “above 62.5 µM”. For the same molecule, at His-Cdc42, the “effect on thermophoretic motion of Cdc42” value is “did not affect the thermophoretic motion of Cdc42”. Further, on GST-Cdc42-Q61L-His, the “activity in double-tagged Cdc42 counter-screen” value was “inactive”.

In the case of `Cc1cccc(NC(=O)c2c(NC(=O)C(F)(F)F)sc3c2CCCCC3)c1` [NCGC00098561], the “effect on Cdc42 binding to IQGAP1” value in series [3] was “reduced the binding substantially”. In addition, the “effect on thermophoretic motion of Cdc42” value on His-Cdc42 is listed as “did not affect the thermophoretic motion of Cdc42”. The “activity in double-tagged Cdc42 counter-screen” value on GST-Cdc42-Q61L-His is “not active”.

Regarding `CCN1CCN(c2ncc3c(n2)CCN(Cc2cc(Br)cs2)C3)CC1` [NCGC00131308], in series [1], the Papp turned out to be 77 ×10⁻⁶ cm/s. The molecule also came in with a solubility (kinetic) in series [2] of 37.1 µg/mL (≈ 88 µM). The “effect on Cdc42 binding to IQGAP1” value in series [3] is on record as “reduced the binding substantially”. For the same molecule, the half-life in series [4] stood at 2.7 min. Besides, the “effect on proliferation” value with MDA-MB-231 cells and in the series on MCF7 cells was “dose-dependent inhibitory effect” throughout. For the same molecule, on His-Cdc42 (read-out: dissociation constant (Kd) for Cdc42), the Kd was found to be 28.1 µM. On GST-Cdc42-Q61L-His (read-out: EC50 in double-tagged Cdc42 counter-screen), the EC50 is 4.47 µM.

Consider `CCc1ccccc1Nc1ncnc2c1cnn2-c1ccc(Cl)cc1` [NCGC00138812], for which the Papp in series [1] came to 177 ×10⁻⁶ cm/s. This molecule displayed a solubility (kinetic) in series [2] of less than 1 µg/mL. Besides, the “effect on Cdc42 binding to IQGAP1” value in series [3] is reported as “reduced the binding substantially”. Also, in series [4], the half-life stood at 7.12 min. Also, the “effect on proliferation” value in the series on MDA-MB-231 cells and in the series on MCF7 cells was “dose-dependent inhibitory effect” each time. The same molecule gave a Kd at His-Cdc42 of 96.2 µM. This molecule also displayed a concentration for a half-maximal effect (EC50) at GST-Cdc42-Q61L-His of 6.31 µM.

(Values after PMC9576799, “Discovery of small molecule inhibitors that effectively disrupt IQGAP1-Cdc42 interaction in breast cancer cells” (Scientific Reports, 2022).)
